This is an account of results in publication PMC5584254, “Identification of novel small molecule Beclin 1 mimetics activating autophagy” (Oncotarget, 2017).

For assay [1], the target named is T1, Bcl-xL-Beclin 1 complex (Homo sapiens, UniProt Q07817).
T1 construct: made in house
In words: FP-based high-throughput screening, primary screen. The assay is classed as binding. Particulars: first screen; 40 μM compound, 2.5 μM Bcl-xL, 400 nM 20-mer. The text has this: Next, we optimized the FP competitive binding assay in a 384-well microplate format and carried out a small-scale HTS using a small library, which contains 6580 compounds from Prestwick, Microsource and our in-house CMLD library. Then, the FP assay was optimized and applied in screening the larger Chembridge library consisting of 43736 compounds. HTS cascades are shown in Supplementary Figure 1A–1B. […] All chemical structures can be found on the PubChem website (http://pubchem.ncbi.nlm.nih.gov/).
(§1) Then the plates were read by Envision (Perkin Elmer, Waltham, MA). […] The hits were selected from library stocks and reconfirmed in a concentration response FP assay (6 doses ranging from 5 μM to 160 μM or 8 doses ranging from 0.5 μM to 60 μM).

Assay [2] concerns the target T1, Bcl-xL-Beclin 1 complex. Briefly: Concentration response FP reconfirmation of HTS hits. The assay is classed as binding. Particulars: hits of first screen; for inhibition at 5 µM: read-out: Dose-response (% Inhibition) 5 μM; for inhibition at 10 µM: read-out: Dose-response (% Inhibition) 10 μM; for inhibition at 20 µM: read-out: Dose-response (% Inhibition) 20 μM; for inhibition at 40 µM: read-out: Dose-response (% Inhibition) 40 μM; for inhibition at 80 µM: read-out: Dose-response (% Inhibition) 80 μM; for inhibition at 160 µM: read-out: Dose-response (% Inhibition) 160 μM. The procedure: as §1

The test system of another assay is PC-3a. In words: MTT-based cytotoxicity assay, PC-3a. Particulars: Homo sapiens, averages of at least two independent experiments, read-out: Cytotoxicity in different cell lines (IC50, μM) PC-3a. The text has this: (§2) Human prostate cancer cell lines PC-3 and DU145, were purchased from American Type Culture Collection (ATCC) and used within 50 passages. PC-3a is a derivative of PC-3 that is resistant to chemo/radiotherapy, established in our lab and confirmed by genotyping. All cells were maintained in DMEM (Mediatech, Manassas, VA) supplemented with 10% fetal bovine serum (FBS) (Sigma-Aldrich, St. Louis, MO), 1% Glutamine (Mediatech, Manassas, VA), 1% antibiotics (Mediatech, Manassas, VA). Compounds for primary FP-based HTS screening were from Prestwick, Microsource, University of Kansas Center of Excellence in Chemical Methodologies & Library Development (KU CMLD, Lawrence, KS), and Chembridge libraries. Compounds for MTT and SPR validation experiment were purchased from Microsource (Gaylordsville, CT) and Hit2lead Company (San Diego, CA). Acridine analogues, compound 1–6, were from our in-house library (provided by Specialized Chemistry Center, University of Kansas, Lawrence, KS); compound 7–17 were synthesized as described in supplementary information. (–)-Gossypol was isolated from racemic gossypol as we previously described. ABT-263 and DMSO were purchased from Sigma. MTT-based cytotoxicity assay and western blot analysis was carried out according to our previous publications. The primary antibodies used were LC3B (#2775) (Cell signaling Technology, Danvers, MA) and β-actin (A5441) (Sigma).

The subject of assay [3] is PC-3 and PC-3a prostate cancer cells. Briefly: Western blot of autophagy markers (LC3 conversion, P62). Particulars: 24 h treatment. It counts as cell-based, Human. The procedure:
(§3) Figure 5 Acridine compounds induce autophagy in prostate cancer cells (A) LC3-II conversion in western blot analysis indicated the activity of autophagy. Cells were treated with DMSO or compounds for 24 h, and then lysed and processed for western blot analysis of LC3. (–)G and EBSS were used as positive controls. […] Yellow puncta indicate autophagosome (overlay of red and green fluorescence); red puncta indicate autolysosome (due to green fluorescence quenching at the acidic condition). Cells expressing RFP-GFP-LC3 were treated with compounds A13, A15 or A21 at indicated concentration for 24 h.
Figure 8 Acridine compounds induce autophagy in PC-3 and PC-3a cancer cells LC3-II conversion in western blot analysis indicated the activity of autophagy. Cells were treated with DMSO or compounds for 24 h, and then lysed and processed for western blot analysis of LC3. (–)G and EBSS were used as positive controls.
as §2
In general terms: A western blot detects proteins with antibodies after separation by electrophoresis.

Another assay deals with PC-3 and PC-3a cells. In words: RFP-GFP-LC3 fluorescence microscopy (autophagic flux). It counts as cell-based, Human. Particulars: cells transfected with RFP-GFP-LC3, treated 24 h; PC-3a and PC-3. The procedure:
as §3
PC-3 and PC-3a cells were transfected with ptfLC3 plasmid using Lipofectamine 2000 (Invitrogen Life Technologies, Carlsbad, CA). ptfLC3 was a gift from Tamotsu Yoshimori (Addgene plasmid # 21074), and is a tandem fluorescent-tagged LC3 with mRFP (mRFP, monomeric Red Fluorescent Protein) and EGFP (EGFP, Enhanced Green Fluorescent Protein). Twenty-four hours after transfection, cells were treated with compounds for 24 h, then fixed in 4% formaldehyde for 10 min. Cells were then washed three times with PBS, stained with DAPI (0.5 μg/ml in PBS) for 5 min and observed under a fluorescence microscope (OLYMPUS IX81, Tokyo, Japan) with X 40 lens.

For orientation: inhibition means the relative decrease from the control value, in per cent. One may read the IC50 as the midpoint of a concentration-inhibition curve.

The structures appear in SMILES notation. Where a name gives a salt, the structure may show the parent alone.

T1 sequence (Q07817 whole entry, one chain of several): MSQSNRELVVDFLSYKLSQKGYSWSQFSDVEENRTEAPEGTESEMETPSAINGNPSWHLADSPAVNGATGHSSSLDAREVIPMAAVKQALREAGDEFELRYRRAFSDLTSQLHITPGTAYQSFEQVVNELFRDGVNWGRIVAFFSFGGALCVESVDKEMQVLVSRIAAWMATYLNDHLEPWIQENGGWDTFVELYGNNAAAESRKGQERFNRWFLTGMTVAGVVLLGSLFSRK

Consider `Nc1ccc2cc3ccc(N)cc3nc2c1` [Compound A13, PROFLAVINE HEMISULFATE], for which, on Bcl-xL-Beclin 1 complex [1], the “Primary Screen mP” value is given as -3.2 mP and the inhibition at 40 µM worked out at 102%. Moreover, at Bcl-xL-Beclin 1 complex [2], the inhibition at 5 µM was found to be 55.9%, the inhibition at 10 µM turned out to be 65.8%, the inhibition at 20 µM was determined as 101% and the inhibition at 40 µM was determined as 102%. On Bcl-xL-Beclin 1 complex [2], the inhibition at 80 µM was found to be 102% and the inhibition at 160 µM came out at 102%. The IC50 with PC-3a amounted to 0.68 ± 0.16 µM. For the same compound, in assay [3], the “LC3-I to LC3-II conversion” value was “Increased level of LC3-II”. In addition, in the assay on PC-3 and PC-3a cells, the “RFP-GFP-LC3 puncta” value is listed as “many strong red puncta”.

Take `CCOc1ccc2nc3cc(N)ccc3c(N)c2c1` [Compound A15, ETHACRIDINE LACTATE]: at Bcl-xL-Beclin 1 complex [1], the “Primary Screen mP” value is 83.5 mP and the inhibition at 40 µM turned out to be 37.9%. On Bcl-xL-Beclin 1 complex [2], the inhibition at 5 µM was -0.5%, the inhibition at 10 µM amounted to 6.2%, the inhibition at 20 µM amounted to 14.9% and the inhibition at 40 µM stood at 20%. Also, on Bcl-xL-Beclin 1 complex [2], the inhibition at 80 µM was found to be 47.7% and the inhibition at 160 µM amounted to 60.9%. Besides, the concentration for half-maximal inhibition (IC50) in the assay on PC-3a is 2.33 ± 0.99 µM. In addition, the “LC3-I to LC3-II conversion” value in assay [3] is reported as “Increased level of LC3-II”. The “RFP-GFP-LC3 puncta” value in the assay on PC-3 and PC-3a cells is reported as “many strong red puncta”.

As for `CCN(CC)CCCC(C)Nc1c2ccc(Cl)cc2nc2ccc(OC)cc12` (stereo not drawn) [Compound A21, QUINACRINE HYDROCHLORIDE], at Bcl-xL-Beclin 1 complex [1], the “Primary Screen mP” value is given as 72.2 mP and the inhibition at 40 µM came out at 48.2%. Moreover, on Bcl-xL-Beclin 1 complex [2], the inhibition at 5 µM came out at 14.5%, the inhibition at 10 µM stood at 26.7%, the inhibition at 20 µM came to 38.6% and the inhibition at 40 µM was 47.9%. Besides, on Bcl-xL-Beclin 1 complex [2], the inhibition at 80 µM was 58.3% and the inhibition at 160 µM worked out at 66.3%. The IC50 in the assay with PC-3a amounted to 0.8 ± 0.12 µM. Moreover, the “LC3-I to LC3-II conversion” value in assay [3] is on record as “Increased level of LC3-II”. For the same compound, the “RFP-GFP-LC3 puncta” value in the assay on PC-3 and PC-3a cells is “many strong red puncta”.
